US12433911B2, “Preparation and storage of liposomal RNA formulations suitable for therapy” (BIONTECH SE, priority 2019, dated 2025)
Read-outs that look alike come from different tables or passages of the source.

Assays:
[1] = DOPE and DOPE/DOTMA solubility in ethanol (HPLC); type: physicochemical; settings: for DOPE solubility in ethanol comprising 220 mM DOTMA, mM after Filtration: DOTMA/DOPE 66:33 in ethanol abs.
Description: DOPE and DOPE/DOTMA solubility in ethanol was investigated by preparing 300 mM DOPE or 330 mM DOPE/DOTMA (66:33) solutions in ethanol. The lipids were dissolved by incubating the lipid solutions at 37° C. for 20 minutes. The DOPE solutions were centrifuged at 17000 G for 1 h and the DOPE concentration was measured in the supernatant by HPLC. The DOTMA/DOPE solutions were filtered through a 0.22 μm PES syringe filter and the lipid concentration was measured in the filtrate by HPLC.
Lipid concentration in the different liposome formulations were measured by HPLC (Agilent technologies. Santa Clara. USA) using a Sunfire C18 2.5 μm 4.6×75 mm column (Waters, Massachusetts USA) and a wave length of 205 nm. Mobile phase A was a mixture of 70% methanol/30% isopropanol/0.1% TFA, mobile phase B was a mixture of 55% methanol/15% isopropanol/30% water/0.1% TFA. Liposomes samples were or not diluted with water to 3 mM total lipid concentration.
It has been tested if DOPE-containing solutions of higher concentration can be prepared (in the supersaturated state) and used for ethanol injection for liposome manufacturing (next section).

[2] = Freezing of RNA lipoplexes with cryoprotectants and NaCl, particle size; type: physicochemical; settings: for preservation of particle size: single freezing step, 0 to 60 mM NaCl, 20% (w/v) cryoprotectant
Description: Methods: Different compounds representative for monosaccharides (glucose and sorbitol), disaccharides (sucrose and trehalose), amino acids (arginine, prolin), triols (glycerin) as well as cryoprotectant systems containing mixtures of different sugars (mannitol and sucrose) were investigated in order to identify suited cryoprotectants (FIGS. 25 and 26). Therefore RNA lipoplexes were frozen in the presence of increasing concentration of these compounds. In order to identify minimum content of cryoprotectant at a certain concentration of NaCl, RNA lipoplexes were frozen in the presence of increasing amounts of sucrose or trehalose as representative cryoprotectants (Table 7). The samples were initially frozen a single time in order to determine the concentration range of cryoprotectant to be investigated in detail. In a third experiment, the efficacy of stabilization of the particle size was challenged by freezing of the RNA lipoplexes up to 10 times in the presence of the cryoprotectant trehalose (Table 8).

[3] = Buffer, pH, NaCl and sucrose stability studies at +25° C. and −15° C. (PCS, pH, capillary electrophoresis); settings: for stability of the RNA in RNA lipoplexes: Example 2.1, accelerated conditions (25°); for preservation of the particle size and the polydispersity: Example 2.1, frozen state (−15° C.)
Description: RNA lipoplexes are incubated under accelerated conditions (25° C.) in the presence of an exemplarily cryoprotectant. RNA integrity was analyzed by capillary electrophoresis over 60 days. Additionally, RNA lipoplexes are incubated under at the anticipated storage conditions (−15° C.) in the presence of an exemplarily cryoprotectant for up to two years. RNA integrity was analyzed by capillary electrophoresis.
The respective RNA lipoplexes were investigated under accelerated conditions (25° C.) and in the frozen state (−15° C.).
RNA lipoplexes were formed with liposomes containing 2 mM of acetic acid. The respective RNA lipoplexes were investigated under accelerated conditions (25° C.) and in the frozen state (−15° C.).
Method: All RNA lipoplexes were automatically prepared in a single batch and the different concentrations of HEPES were adjusted by the addition of a cryoprotectant solution containing different amounts of HEPES. Particle sizes and polydispersity of RNA lipolexes were analyzed by photon correlation spectroscopy (PCS) measurements. Additionally, the RNA integrity was analyzed by capillary electrophoresis and the pH was measured.
In the following study, the concentration of HEPES which is required for stabilization of the pH of the RNA lipoplexes was investigated. RNA lipoplexes were formed with liposomes containing 5 mM of acetic acid and different concentrations of HEPES were adjusted by using different cryoprotectant solutions and the respective RNA lipoplexes were investigated under accelerated conditions (25° C.). The pH range from pH 6.2 to 7.2 was tested.
Methods: As a representative cryoprotectant, sucrose was investigated at a concentration of 10% (w/v). A detailed description of the experiments is given in section 2.
In the following study, the long-term stability of RNA lipoplexes in the frozen state was investigated with the combination of the reduced concentration of NaCl and Sucrose in the presence of either HEPES or Histidine as a buffering agent at a pH of 6.5.

[4] = RNA integrity of RNA lipoplexes under stress conditions (40° C.), capillary electrophoresis; settings: 21 days, absence of cryoprotectant, by buffering system
Method: RNA lipoplexes are initially incubated under stress conditions (40° C.) in the absence of cryoprotectant. RNA integrity was analyzed by capillary electrophoresis over 21 days. In order to investigate the optimum pH range in the presence of an exemplary cryoprotectant, RNA lipoplexes were incubated in the presence of HEPES and sucrose at 40° C. and RNA integrity was analyzed for 21 days.
RNA integrity was analyzed as a key physicochemical parameter over 21 days.

[5] = Description: The samples were frozen at −30° C. and then transferred to the respective temperature for long-term storage (either −15 or −30° C.). After defined storage time, samples were analyzed and preservation of the colloidal stability was analyzed by measuring the particle size using PCS. These experiments were performed at a total RNA concentration of 0.05 mg/mL.
Method: To investigate the minimum content of representative cryoprotectants as sucrose, trehalose, glucose and mixtures including dextran required for long-term storage at −20° C., RNA lipoplexes were frozen at a fixed cryoprotectant content in combination with varying NaCl concentrations. For monomeric or dimeric molecular cryoprotectants as glucose, sucrose, and trehalose a concentration of 22% (w/v) was adjusted. These formulations were frozen and stored at −15 to −40° C. and long-term stability was investigated by measuring the particle size using PCS after defined storage time.
The samples were frozen and stored at −20° C. After defined storage time, samples were analyzed and preservation of the colloidal stability was analyzed by measuring the particle size.

[6] = compound tested as cryoprotectant
[7] = Example 2.2, accelerated conditions (25° C.)
[8] = Example 2.2, frozen state (−15° C.)
[9] = 70 mM NaCl, up to 10 times freezing

In the case of CCCCCCCC/C=C\CCCCCCCC(=O)OC[C@H](COP(=O)(O)OCCN)OC(=O)CCCCCCC/C=C\CCCCCCCC [DOPE, 1,2-di-(9Z-octadecenoyl)-sn-glycero-3-phosphoethanolamine], the “DOPE solubility in ethanol comprising 220 mM DOTMA, mM after Filtration” value (from here on “DOPE solubility … after Filtration”) ([1]; Corden Pharma, F0624) is reported as 93 mM, the “DOPE solubility … after Filtration” value ([1]; Corden Pharma, W0650) is reported as 106 mM and the “DOPE solubility … after Filtration” value ([1]; Merck, MK2885-C) is reported as 94 mM. The “DOPE solubility … after Filtration” value ([1]; NOF, 14099612) was 103 mM, the “DOPE solubility in ethanol” value ([1]; Provider Corden Pharma, Charge Nr. F0624) was 56 mM and the “DOPE solubility in ethanol” value ([1]; Provider Corden Pharma, Charge Nr. W0650) was 59 mM. For the same compound, the “DOPE solubility in ethanol” value ([1]; Provider Merck, Charge Nr. MK2885-C) was 59 mM and the “DOPE solubility in ethanol” value ([1]; Provider NOF, Charge Nr. 14099612) was 63 mM.

With OCC(O)CO [Glycerin, glycerin] the “stabilization of RNA lipoplexes during freezing” value [2, 6] was “can be used as cryoprotectants”.

In the case of O=S(=O)(O)CCN1CCN(CCO)CC1 [HEPES, 2-[4-(2-hydroxyethyl)piperazin-1-yl]ethanesulfonic acid], the “HEPES concentration sufficient for stabilization of the adjusted pH” value ([3]; 25° C.) is reported as ≥ 2.5 mM, the “stability of the RNA in RNA lipoplexes” value [3] is reported as “best stability” and the “preservation of the particle size and the polydispersity” value [3] is reported as “equally suited”. The “stabilization of the RNA integrity” value [3, 7] was “comparable stabilization of the RNA integrity”, the “stabilization of the RNA integrity” value [3, 8] was “comparable stabilization of the RNA integrity” and the RNA integrity ([3]; Example 4.1, accelerated +25° C., vs current formulation 20 mM NaCl and 22% sucrose) was “better preserved”.

With N[C@@H](Cc1c[nH]cn1)C(=O)O [Histidine, histidine] the “stability of the RNA in RNA lipoplexes” value [3] was “lower stability”, the “preservation of the particle size and the polydispersity” value [3] was “equally suited” and the “stabilization of the RNA integrity” value [3, 7] was “slightly reduced stability”. For the same compound, the “stabilization of the RNA integrity” value [3, 8] was “comparable stabilization of the RNA integrity”.

In the case of O=S(=O)(O)CCN1CCOCC1 [MES, 2-(N-morpholino)ethanesulfonic acid], the “stabilization of the RNA integrity” value [3] is reported as “comparable stabilization of the RNA integrity”.

In the case of N=C(N)NCCC[C@H](N)C(=O)O [arginine], the “stabilization of RNA lipoplexes during freezing” value [2, 6] is reported as “clearly destabilizes the RNA lipoplexes”.

In the case of O=C([O-])[O-].[Na+].[Na+] [carbonate, sodium carbonate], the “stabilization of the RNA (RNA integrity)” value [4] is reported as “did not result in comparable stabilization of the RNA”.

With O=C(O)[C@@H]1CCCN1 [proline] the “stabilization of RNA lipoplexes during freezing” value [2] was “can be used as cryoprotectants”.

In the case of O=P(O)(O)O [sodium phosphate], the “stabilization of the RNA (RNA integrity)” value [4] is reported as “comparable results”.

For OC[C@@H](O)[C@@H](O)[C@H](O)[C@@H](O)CO [sorbitol], the “stabilization of RNA lipoplexes during freezing” value [2, 6] was “can be used as cryoprotectants” and the “stabilization efficacy compared with the other cryoprotectants” value ([2]; freezing) was “lower”.

For OC[C@H]1O[C@@](CO)(O[C@H]2O[C@H](CO)[C@@H](O)[C@H](O)[C@H]2O)[C@@H](O)[C@@H]1O [sucrose], the “stabilization efficacy between cryoprotectants” value [5] was “No difference” and the “preservation of particle size” value [2] was “acceptable preservation of particle size”.

For OC[C@H]1O[C@H](O[C@H]2O[C@H](CO)[C@@H](O)[C@H](O)[C@H]2O)[C@H](O)[C@@H](O)[C@@H]1O [trehalose], the “stabilization efficacy between cryoprotectants” value [5] was “No difference”, the “trehalose sufficient for stabilization of particle characteristics” value ([2]; 50 mM NaCl, even after 10 times freezing) was ≥ 12.5% and the “trehalose required for exact preservation of the particle size” value [2, 9] was ≥ 22.5%. The “trehalose required for minimum stabilization” value [2, 9] was ≥ 12.5%, the “exact preservation of the particle size” value ([2]; 90 mM NaCl, highest investigated concentration 27.5%) was “could not be achieved” and the “trehalose required for minimum stabilization” value ([2]; 90 mM NaCl, up to 10 times freezing) was ≥ 15.0%. For the same compound, the “preservation of particle size” value [2] was “acceptable preservation of particle size”.
